The results in this text go back to patent US20180280340A1, “METHOD OF TREATING AND PREVENTING INFECTIONS” (priority 2017, published 2018).

One test has as its system G. vaginalis biofilm. As to the kind of experiment: biofilm production inhibition, colorimetric biofilm staining. Format: cell-based, Gardnerella vaginalis. The procedure: As a second step, the concentrations, which inhibited biofilm production, were determined. Several concentrations of BPO were tested: 0, 31.25, 62.5, 125, and 250 μg/mL. A colorimetric method was used for biofilm staining and to determine the biofilm integrity percent after the treatment. Note that in this test, the prototype of the vaginal gel was not used, but a DMSO solution of PBO (solution required for 96-well microplate) was used. Consequently, the inhibitory concentration for G. vaginalis found in this test cannot be compared with the inhibitory concentrations for BPO-gel as found in the previous experiments (Xu et al., 2013).

Test [1] relates to G. vaginalis. As to the kind of experiment: broth microdilution assay to determine MIC and sub-MICs of BPO. In kind it is cell-based. Particulars: Gardnerella vaginalis, DMSO solution of BPO, read-out: concentration required to completely inhibit the growth of G. vaginalis (MIC). The text has this: Experimental Details: At a first step of the experiment, a broth microdilution assay was used to determine MIC and sub-MICs of BPO against G. vaginalis, a leading microorganism responsible for Bacterial Vaginosis. […] Note that in this test, the prototype of the vaginal gel was not used, but a DMSO solution of PBO (solution required for 96-well microplate) was used. Consequently, the inhibitory concentration for G. vaginalis found in this test cannot be compared with the inhibitory concentrations for BPO-gel as found in the previous experiments (Xu et al., 2013).
Background: Dilution methods test growth across graded concentrations, often in twofold steps.

Test [2] deals with G. vaginalis. As to the kind of experiment: bacterial cells viability under sub-MIC BPO treatment. Format: cell-based, Gardnerella vaginalis. Particulars: highest sub-MIC concentration of 250 μg/mL.

`O=C(OOC(=O)c1ccccc1)c1ccccc1` [BPO, Benzoyl peroxide]: the biofilm prevention result in the test with G. vaginalis biofilm (125 μg/mL BPO) is on record as “more than 40%”. The inhibition at 250 µg/mL with G. vaginalis biofilm (Gardnerella vaginalis, 250 μg/mL BPO (sub-MIC), compared with the control, read-out: biofilm formation inhibited) was around 80%. The same molecule displayed a biofilm integrity with G. vaginalis biofilm (around 250 μg/mL BPO) of 20%. Besides, in the test with G. vaginalis [1], the MIC was above 250 µg/mL. For the same molecule, in the test with G. vaginalis [2], the bacterial cells viability entry is “not influenced”.
